Test results reported in publication PMC5358997, “Fixed-dose combination orally disintegrating tablets to treat cardiovascular disease: formulation, in vitro characterization and physiologically based pharmacokinetic modeling to assess bioavailability” (Drug Design, Development and Therapy, 2017).

How the values were obtained:
LDL-C = settings: hypercholesterolemic patients; cited from earlier work
[1] = Dissolution testing of ODTs in biorelevant media (USP 2 paddle), f1/f2 comparison; format: physicochemical; settings: for Similarity factor f2 / Difference factor f1: single (reference) vs FDC (test) dissolution profile; for Similarity factor f2: similar if above 50; for Difference factor f1: similar if below 15; for Results of f1 and f2 testing: similar if f1 below 15 and f2 above 50; for >85% dissolution ≤15 min: single and FDC formulations
Protocol: API dissolution from ODTs in 900 mL biorelevant media was tested in both FaSSIF and FeSSIF at pH 6.5 and 5, respectively, and maintained at 37°C. An ERWEKA DT 600 USP 2 paddle apparatus (Heusenstamm, Germany) was used at a paddle speed of 50 rpm.[27] A total of 5 mL of sample was taken over 2 h, replacing with 5 mL fresh media to simulate sink conditions. API dissolution was measured using HPLC and corrected for percent dose dissolved.
Differences between dissolution profiles of APIs in single dose (reference) and combination (test) were assessed using f1 and f2 difference and similarity factor testing using the equations:[34] f1={[∑t=1n|Rt−Tt|]/[∑t=1nRt]}*100f2=50*log{[1+(1/n)∑t=1n(Rt−Tt)^2]^−0.5*100} where Rt and Tt are the percent drug-dissolved value at each time point for the reference and test product, respectively, and n is the number of time points.

in vitro = settings: human; for efflux ratio at 2 h: Caco-2, pH 7.4, Efflux ratio; for Papp A→B at 2 h: Caco-2, pH 7.4, Papp A–B; for Papp B→A at 2 h: Caco-2, pH 7.4, Papp B–A
Protocol: Media were changed every 2–3 days and transwells cultured at 37°C, 5% CO2 for 21 days, after which transport studies were performed. […] Samples of 100 μL were removed from the A side and 200 μL from the B side at time points over 2 h, replacing with fresh prewarmed media (37°C) to mimic sink conditions. […] Cultures were maintained at 37°C and 5% CO2 throughout the experiment.

[2] = amlodipine (20 μg/mL) and atorvastatin (40 μg/mL) in combination, pH 7.4, n=3, mean ± SD
[3] = drug alone (amlodipine 20 μg/mL, atorvastatin 40 μg/mL), pH 7.4 both compartments, n=3, mean ± SD

Similarity factor f2 ([1]; FaSSIF)	Difference factor f1 ([1]; FaSSIF)	Results of f1 and f2 testing ([1]; FaSSIF)	Similarity factor f2 ([1]; FeSSIF)	Difference factor f1 ([1]; FeSSIF)	Results of f1 and f2 testing ([1]; FeSSIF)	efflux ratio at 2 h (in vitro; amlodipine and atorvastatin in combination, pH 7.4)	efflux ratio at 2 h (in vitro; drug alone, pH 7.4 both compartments)	Papp A→B at 2 h (in vitro; [2]) [×10⁻⁶ cm/s]	Papp A→B at 2 h (in vitro; [3]) [×10⁻⁶ cm/s]	Papp B→A at 2 h (in vitro; [2]) [×10⁻⁶ cm/s]	Papp B→A at 2 h (in vitro; [3]) [×10⁻⁶ cm/s]	Dissolution within 15 min ([1]; FaSSIF, both single and FDC ODT)	>85% dissolution ≤15 min ([1]; FaSSIF)	Dissolution within 15 min ([1]; FeSSIF, either single or FDC ODT) [%]	>85% dissolution ≤15 min ([1]; FeSSIF)	SMILES	Reduction of LDL-C (LDL-C)
53.81	14.16	Pass	54.59	13.24	Pass	–	–	–	–	–	–	–	–	–	–	CC(C)c1c(C(=O)Nc2ccccc2)c(-c2ccccc2)c(-c2ccc(F)cc2)n1CC[C@@H](O)C[C@@H](O)CC(=O)O [Atorvastatin, atorvastatin calcium]	41%–61%
70.80	5.08	Pass	45.40	15.92	Fail	0.96	1.14	5.4 ± 0.48	8.34 ± 0.32	5.18 ± 0.29	9.51 ± 1.7	exceeded 85%	Yes	≤ 85	No	CCOC(=O)C1=C(COCCN)NC(C)=C(C(=O)OC)C1c1ccccc1Cl (centres unmarked) [Amlodipine, Amlodipine besylate]	–
